US10562857B2 (AFASCI, Inc., priority 2015, dated 2020)
Entries after “also recorded” stand apart in the source; their conditions may differ.

Tests used:
SNI rats [1] = experiment: Spared nerve injury (SNI) rats, von Frey monofilament test; format: in vivo, rat; details: for start of drug action post-injection: 30 mg/kg I.P., thermal and mechanical thresholds; for mechanical pain threshold of left hindpaw (allodynia): 30 mg/kg, 1 mL I.P.
Procedure: FIG. 3B. Mechanical pain threshold assessment (von Frey monofilament test) of SNI rats' left hindpaws. Each SNI rat received either EXAMPLE-106, -107, and -115 (each 30 mg/kg, 1 mL I.P.), or vehicle (1 mL I.P. 2% DMSO in 0.5% HPC). Sham rats also received vehicle I.P. injections. […] The sham-vehicle serves as a positive control. Thermal and mechanical pain responses were measured once every hour for 8 consecutive hours after I.P. treatment (n=8 rats per treatment group).
FIG. 4. Mechanical pain threshold assessment (von Frey monofilament test) of left hindpaws in another cohort of SNI rats. Each SNI rat received either EXAMPLE-128, -130, -132, or Z944 (as a reference compound, each 10 mg/kg, 2 mL oral gavage, P.O.). […] Mechanical pain responses were measured at pre-dosing, 1, 2, 4, and 6 hours post-treatment using von Frey monofilament test (n=8 rats per group).
(§1) In additional examples shown here, the analgesic effects were further evaluated in another rat species. Baseline thermal and mechanical thresholds of male rats (Sprague-Dawley rats, 275 g-325 g, Harlan) were taken prior to surgery; baseline thresholds were measured on the rats' left hindpaws. Thirty-two rats underwent the SNI surgery on their left hind leg; 8 rats underwent surgery without injury of the nerves as a sham group. Two weeks post-surgery, the thermal thresholds of each rat were reassessed. […] Each rat received either EXAMPLE-106, -107, -115 (each 30 mg/kg, 1 mL I.P.), or vehicle (2% DMSO in 0.5% HPC). Thermal and mechanical thresholds were measured at 1, 2, 3, 4, 5, 6, 7, and 8 hours post-treatment/dosing. […] The drug actions started around 1 hour post-injection and peaked between 2 and 3 hours, and the drug effects gradually declined to pre-treatment levels over 6-7 hours (FIGS. 3A and B).
In another cohort of SNI rats ((n=8 per group)), mechanical thresholds were measured at pre-dosing, 1, 2, 4, and 6 hours post-treatment using von Frey monofilament test.

SNI rats [2] = experiment: Spared nerve injury (SNI) rats, Hargreaves thermal test; format: in vivo, rat; details: 30 mg/kg, 1 mL I.P.
Procedure: FIG. 3A. Spared Nerve Injury (SNI) rats' left hindpaw withdrawal latencies in response to thermal stimulation (Hargreaves test). Each SNI rat received either EXAMPLE-106, 107, or 115, (each 30 mg/kg, 1 mL I.P.), or vehicle (2% DMSO in 0.5% HPC). Sham rats also received vehicle I.P. injections. […] 40 seconds were cutoff in order to prevent tissue damage. The sham-vehicle serves as a positive control (n=8 per treatment group).
as §1

SNI mice [3] = experiment: Spared nerve injury (SNI) mice, von Frey monofilament test; format: in vivo, mouse; details: 30 mg/kg, 0.2 mL I.P.
Source text: FIG. 1B. Mechanical pain threshold assessment (using von Frey monofilament test) of the same cohort of SNI mice's left hindpaws.
(§2) T-channel specific inhibitors are not yet available for clinical treatment of neuropathic pain. The spared nerve injury (SNI) model, one of the reliable neuropathic pain models in mice and rats (Decosterd and Woolf, 2000), was used to assess the effects of the representative compounds.
(§3) Of the three branches of the sciatic nerve, the tibial and common peroneal nerves of the mice (C57BL/6, male, 25-30 g, Harlan) were cut and ligated, leaving the sural nerve intact. Pre-surgery baselines (100%) of the thermal and mechanical pain thresholds of the ipsilateral hind paws were measured using the Hargreaves thermal stimulator (Hargreaves et al., 1988) and von Frey hair monofilaments (up-down method, Chaplan et al., 1994), respectively. Mice underwent the SNI surgery on their left hind leg. Two weeks post-surgery, the thermal thresholds of each mouse were reassessed.
(§4) EXAMPLE-11, 14, 38, 62, or 113 (FIGS. 1A and B) and EXAMPLE-12, 16, 19, 39, or 44 (FIGS. 2A and B) were administered at 30 mg/kg (0.2 mL I.P.) in a vehicle (pure DMSO to dissolve the powder first and then add 0.5% Hydroxyl Propyl Cellulose, HPC, to contain 2% DMSO in injection solution). All drug solutions used the same vehicle, unless specified otherwise.

Cav3.2 channel = target: T1, Cav3.2 channel (Homo sapiens, UniProt O95180); experiment: Whole-cell patch clamp of T-type Cav3.2 channel expressed in HEK293 cells; format: cell-based; details: for IC50: Table 1, tested at at least 4 concentrations, read-out: IC50; for inhibition at 1 µM: HEK293, Table 1 primary screening
T1 construct: expressed in transfected cells; host or cells: HEK-293, tetracycline inducible expression system (Invitrogen)
T1 sequence (O95180 whole entry): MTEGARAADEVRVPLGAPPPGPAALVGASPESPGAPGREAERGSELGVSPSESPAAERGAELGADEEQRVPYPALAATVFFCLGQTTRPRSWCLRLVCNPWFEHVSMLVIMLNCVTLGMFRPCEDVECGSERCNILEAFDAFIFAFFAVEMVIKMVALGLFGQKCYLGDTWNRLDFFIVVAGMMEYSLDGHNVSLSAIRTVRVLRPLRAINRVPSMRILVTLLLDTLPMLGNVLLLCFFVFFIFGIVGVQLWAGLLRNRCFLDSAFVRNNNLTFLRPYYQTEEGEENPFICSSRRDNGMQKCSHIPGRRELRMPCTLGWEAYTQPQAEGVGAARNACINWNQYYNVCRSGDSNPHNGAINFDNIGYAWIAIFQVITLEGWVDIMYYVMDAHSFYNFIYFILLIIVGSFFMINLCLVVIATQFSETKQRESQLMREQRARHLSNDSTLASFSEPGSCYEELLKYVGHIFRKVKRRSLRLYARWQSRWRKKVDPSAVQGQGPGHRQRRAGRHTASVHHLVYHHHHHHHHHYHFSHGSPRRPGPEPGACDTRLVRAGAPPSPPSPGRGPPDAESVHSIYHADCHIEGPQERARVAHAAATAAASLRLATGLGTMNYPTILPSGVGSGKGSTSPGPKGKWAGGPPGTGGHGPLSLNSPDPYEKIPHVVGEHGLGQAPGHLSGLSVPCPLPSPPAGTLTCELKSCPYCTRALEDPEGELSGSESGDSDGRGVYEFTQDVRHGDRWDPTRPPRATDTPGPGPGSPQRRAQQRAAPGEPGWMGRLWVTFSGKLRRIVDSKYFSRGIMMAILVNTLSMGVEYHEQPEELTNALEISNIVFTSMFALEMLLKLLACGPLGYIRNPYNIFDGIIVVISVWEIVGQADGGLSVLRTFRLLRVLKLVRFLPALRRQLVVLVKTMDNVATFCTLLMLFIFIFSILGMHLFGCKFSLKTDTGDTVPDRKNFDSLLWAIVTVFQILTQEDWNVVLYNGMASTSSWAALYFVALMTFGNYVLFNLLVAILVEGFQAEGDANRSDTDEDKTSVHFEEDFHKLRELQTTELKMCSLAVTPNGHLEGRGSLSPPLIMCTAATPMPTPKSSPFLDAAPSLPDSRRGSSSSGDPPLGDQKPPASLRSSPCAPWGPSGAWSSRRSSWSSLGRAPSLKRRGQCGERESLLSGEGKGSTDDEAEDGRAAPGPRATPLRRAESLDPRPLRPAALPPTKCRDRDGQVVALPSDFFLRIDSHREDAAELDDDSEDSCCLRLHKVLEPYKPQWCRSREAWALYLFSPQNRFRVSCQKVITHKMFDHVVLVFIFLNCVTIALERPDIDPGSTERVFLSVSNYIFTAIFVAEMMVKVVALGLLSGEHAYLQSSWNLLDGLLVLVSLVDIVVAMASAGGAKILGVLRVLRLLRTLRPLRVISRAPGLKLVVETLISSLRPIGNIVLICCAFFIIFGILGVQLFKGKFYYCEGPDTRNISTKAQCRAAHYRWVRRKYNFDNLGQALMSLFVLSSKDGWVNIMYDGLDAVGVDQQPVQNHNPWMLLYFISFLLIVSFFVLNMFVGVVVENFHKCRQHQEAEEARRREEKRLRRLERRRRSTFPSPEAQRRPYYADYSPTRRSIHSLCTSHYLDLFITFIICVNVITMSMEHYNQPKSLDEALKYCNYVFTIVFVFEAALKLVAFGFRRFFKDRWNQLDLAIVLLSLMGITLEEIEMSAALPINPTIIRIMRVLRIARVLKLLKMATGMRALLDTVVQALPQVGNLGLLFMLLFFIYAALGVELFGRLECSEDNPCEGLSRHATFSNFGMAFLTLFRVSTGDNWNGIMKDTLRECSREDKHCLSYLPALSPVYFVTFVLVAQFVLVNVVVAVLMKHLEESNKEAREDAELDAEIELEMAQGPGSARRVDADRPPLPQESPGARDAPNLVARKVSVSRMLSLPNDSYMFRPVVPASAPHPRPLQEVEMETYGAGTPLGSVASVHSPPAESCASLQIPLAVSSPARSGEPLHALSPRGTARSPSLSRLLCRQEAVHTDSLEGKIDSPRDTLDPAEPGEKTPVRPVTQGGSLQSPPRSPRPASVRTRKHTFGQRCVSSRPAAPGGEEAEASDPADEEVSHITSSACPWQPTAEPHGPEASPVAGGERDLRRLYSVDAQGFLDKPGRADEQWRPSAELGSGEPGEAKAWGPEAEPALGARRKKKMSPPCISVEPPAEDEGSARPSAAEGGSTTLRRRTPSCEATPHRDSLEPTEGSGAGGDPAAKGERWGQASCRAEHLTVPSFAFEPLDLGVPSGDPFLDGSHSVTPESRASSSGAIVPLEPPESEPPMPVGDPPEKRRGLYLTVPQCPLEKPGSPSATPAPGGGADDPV

SNI mice [4] = experiment: Spared nerve injury (SNI) mice, Hargreaves thermal test; format: in vivo, mouse; details: 30 mg/kg, 0.2 mL I.P.
Procedure: FIG. 1A. Examples of compounds that mitigate neuropathic pain induced by Spared Nerve Injury (SNI) in mice. The withdrawal latencies of the mice's left hindpaws (injured site) in response to thermal stimulation (Hargreaves test). Each SNI mouse received either EXAMPLE (EX)-11, -14, -38, -62, or 113, or gabapentin, as benchmark (each 30 mg/kg, 0.2 mL I.P.), or vehicle (0.2 mL I.P. 2% DMSO in 0.5% Hydroxyl Propyl Cellulose, HPC). […] 40 seconds were cut off in order to prevent tissue damage (n=8 per group).
as §2, §3, §4

CFA mice = experiment: Complete Freund's Adjuvant (CFA)-induced inflammatory pain in mice, von Frey test; format: in vivo, mouse
Procedure: FIG. 7. Effects of EXAMPLE-96, 107 or 115 (each 30 mg/kg, I.P.) or gabapentin (as a benchmark, 100 mg/kg, I.P) on Complete Freund's Adjuvant (CFA)-induced inflammation in male, mice (C57BL/6, ˜2 months old; n=8 mice per group). Mechanical pain threshold assessment of CFA mice's left hindpaws were measured using von Frey monofilament test at 0.5, 1, 2, 4, and 6 hours after treatment.
Because knockout or antisense knockdown of the Cav3.2 isoform produces analgesic effects in neuropathic pain as well as in inflammatory pain in mice (Choi et al., 2007), we used the Complete Freund adjuvant (CFA)-inflammatory pain in mice to investigate the drug effects. EXAMPLE-96, -115, and -107 (each at 30 mg/kg, I.P.) and a reference gabapentin (100 mg/kg, I.P.) was individually administered to mice that had CFA-induced inflammation on their left hindpaws.

Compound	mechanical pain threshold of left hindpaw (allodynia) (SNI mice [3])	IC50 (Cav3.2 channel)	left hindpaw withdrawal latency to thermal stimulation (hyperalgesia) (SNI mice [4])	also measured
O=C(CN1CCC(CNCC(=O)c2ccc[nH]2)CC1)Nc1ccccc1 [Example 106, 2-(4-(((2-Oxo-2-(1H-pyrrol-2-yl)ethyl)amino)methyl)piperidin-1-yl)-N-phenylacetamide]				start of drug action post-injection (SNI rats [1]): around 1 hour; mechanical pain threshold of left hindpaw (allodynia) (SNI rats [1]): elevated both thermal and mechanical thresholds; also recorded: reduced allodynia; left hindpaw withdrawal latency to thermal stimulation (hyperalgesia) (SNI rats [2]): elevated both thermal and mechanical thresholds; also recorded: reduced hyperalgesia
O=C(NC1CC12CCN(CC(c1ccccc1)c1ccccc1)CC2)c1cc(Cl)cc(Cl)c1 (stereo not shown) [Example 39, 3,5-Dichloro-N-(6-(2,2-diphenylethyl)-6-azaspiro[2.5]octan-1-yl)benzamide]	produced analgesic effects; also recorded: reduced allodynia	0.06 µM	produced analgesic effects; also recorded: reduced hyperalgesia	
CC(C)(C)NC(=O)CN1CCC(CNC(=O)c2ccccc2)CC1 [Example 96, N-((1-(2-(tert-Butylamino)-2-oxoethyl)piperidin-4-yl)methyl)benzamide]				mechanical pain threshold, CFA-induced inflammation (CFA mice; 30 mg/kg I.P.): showed an analgesic effect in mechanical pain; inhibition at 1 µM (Cav3.2 channel): 40%
CC(C)(C)NC(=O)CN1CCC2(CC1)CC2NC(=O)c1cc(C(F)(F)F)cc(C(F)(F)F)c1 (stereo not shown) [Example 16, N-(6-(2-(tert-Butylamino)-2-oxoethyl)-6-azaspiro[2.5]octan-1-yl)-3,5-bis(trifluoromethyl)benzamide]	produced analgesic effects; also recorded: reduced allodynia	0.12 µM	produced analgesic effects; also recorded: reduced hyperalgesia	
CC(C)CN1CCC2(CC1)CC2NC(=O)c1cc(Cl)cc(Cl)c1 (stereo not shown) [Example 11, 3,5-Dichloro-N-(6-isobutyl-6-azaspiro[2.5]octan-1-yl)benzamide]	produced analgesic effects; also recorded: reduced allodynia	0.42 µM	produced analgesic effects; also recorded: reduced hyperalgesia	
CC1(CNC(=O)c2ccccc2)CCN(CC(=O)NC(C)(C)C)CC1 [Example 107, N-((1-(2-(tert-butylamino)-2-oxoethyl)-4-methylpiperidin-4-yl)methyl)benzamide]				start of drug action post-injection (SNI rats [1]): around 1 hour; mechanical pain threshold of left hindpaw (allodynia) (SNI rats [1]): elevated both thermal and mechanical thresholds; also recorded: reduced allodynia; mechanical pain threshold, CFA-induced inflammation (CFA mice; 30 mg/kg I.P.): showed an analgesic effect in mechanical pain; inhibition at 1 µM (Cav3.2 channel): 21%; left hindpaw withdrawal latency to thermal stimulation (hyperalgesia) (SNI rats [2]): elevated both thermal and mechanical thresholds; also recorded: reduced hyperalgesia
COc1ccc(CCN2CCC3(CC2)CC3NC(=O)c2cc(Cl)cc(Cl)c2)cc1 (stereo not shown) [Example 44, 3,5-Dichloro-N-(6-(4-methoxyphenethyl)-6-azaspiro[2.5]octan-1-yl)benzamide]	produced analgesic effects; also recorded: reduced allodynia	0.1 µM	produced analgesic effects; also recorded: reduced hyperalgesia	
CC(C)(C)OCCN1CCC2(CC1)CC2NC(=O)c1cc(Cl)cc(Cl)c1 (stereo not shown) [Example 38, N-(6-(2-(tert-Butoxy)ethyl)-6-azaspiro[2.5]octan-1-yl)-3,5-dichlorobenzamide]	produced analgesic effects; also recorded: reduced allodynia	0.04 µM	produced analgesic effects; also recorded: reduced hyperalgesia	
CC(C)(C)NC(=O)CN1CCC2(CC[C@H]2NC(=O)c2cc(Cl)cc(Cl)c2)CC1 [Example 113, (R)—N-(7-(2-(tert-Butylamino)-2-oxoethyl)-7-azaspiro[3.5]nonan-1-yl)-3,5-dichlorobenzamide]	produced analgesic effects; also recorded: reduced allodynia	0.64 µM	produced analgesic effects; also recorded: reduced hyperalgesia	
O=C(NC1CCC12CCN(CCc1ccccc1)CC2)c1ccccc1 (stereo not shown) [Example 62]	produced analgesic effects; also recorded: reduced allodynia		produced analgesic effects; also recorded: reduced hyperalgesia	inhibition at 1 µM (Cav3.2 channel): 68%
NCC1(CC(=O)O)CCCCC1 [gabapentin, reference compound]	reduced allodynia		reduced hyperalgesia	mechanical pain threshold, CFA-induced inflammation (CFA mice; 100 mg/kg I.P.): showed an analgesic effect in mechanical pain
CC(C)(C)CCN1CCC2(CC1)CC2NC(=O)c1cc(C(F)(F)F)cc(C(F)(F)F)c1 (stereo not shown) [Example 19, N-(6-(3,3-Dimethylbutyl)-6-azaspiro[2.5]octan-1-yl)-3,5-bis(trifluoromethyl)benzamide]	produced analgesic effects; also recorded: reduced allodynia	0.03 µM	produced analgesic effects; also recorded: reduced hyperalgesia	
CC(C)(C)NC(=O)CN1CCC2(CC1)CC2NC(=O)c1cc(Cl)cc(Cl)c1 (stereo not shown) [Example 14, N-(6-(2-(tert-Butylamino)-2-oxoethyl)-6-azaspiro[2.5]octan-1-yl)-3,5-dichlorobenzamide]	produced analgesic effects; also recorded: reduced allodynia	0.03 µM	produced analgesic effects; also recorded: reduced hyperalgesia	
CC(C)(C)CCN1CCC2(CC1)CC2NC(=O)c1cc(Cl)cc(Cl)c1 (stereo not shown) [Example 12, 3,5-Dichloro-N-(6-(3,3-dimethylbutyl)-6-azaspiro[2.5]octan-1-yl)benzamide]	produced analgesic effects; also recorded: reduced allodynia	0.05 µM	produced analgesic effects; also recorded: reduced hyperalgesia	
